Assay: xn = mol fraction of the nth substance listed
Conditions: 101 kPa, Liquid; for viscosity: Capillary tube (Ostwald / Ubbelohde) method; for mass density: Pycnometric method

CC(=O)CC(C)=O [2,4-pentanedione] + CC1COC(=O)O1
Conditions | mass density, 288.15 K [kg/m3] | mass density, 298.15 K [kg/m3] | mass density, 308.15 K [kg/m3] | viscosity, 288.15 K [mPa·s] | viscosity, 298.15 K [mPa·s] | viscosity, 308.15 K [mPa·s]
x2 = 0 | 980.34 | 972.18 | 963.46 | 0.741 | 0.67 | 0.609
x2 = 0.0212 | 984.24 | 975.79 | 966.83 | 0.769 | 0.692 | 0.627
x2 = 0.0438 | 988.61 | 979.89 | 970.69 | 0.797 | 0.714 | 0.646
x2 = 0.0625 | 992.42 | 983.48 | 974.11 | 0.821 | 0.732 | 0.661
x2 = 0.0827 | 996.68 | 987.54 | 977.99 | 0.845 | 0.751 | 0.677
x2 = 0.1026 | 1001.03 | 991.71 | 982 | 0.868 | 0.769 | 0.693
x2 = 0.201 | 1024.5 | 1014.55 | 1004.29 | 0.978 | 0.857 | 0.766
x2 = 0.2982 | 1050.05 | 1039.83 | 1029.34 | 1.086 | 0.944 | 0.838
x2 = 0.4028 | 1078.89 | 1068.64 | 1058.14 | 1.215 | 1.047 | 0.922
x2 = 0.5 | 1105.74 | 1095.61 | 1085.24 | 1.359 | 1.162 | 1.014
x2 = 0.6016 | 1132.67 | 1122.7 | 1112.52 | 1.549 | 1.313 | 1.133
x2 = 0.6985 | 1156.08 | 1146.19 | 1136.15 | 1.782 | 1.495 | 1.277
x2 = 0.7995 | 1176.95 | 1166.95 | 1156.95 | 2.093 | 1.735 | 1.466
x2 = 0.9016 | 1193.11 | 1182.69 | 1172.51 | 2.493 | 2.04 | 1.706

CC1COC(=O)O1 (configuration not stated) [4-methyl-1,3-dioxolan-2-one] + C1CCOC1
Conditions | mass density, 288.15 K [kg/m3] | mass density, 298.15 K [kg/m3] | mass density, 308.15 K [kg/m3] | viscosity, 288.15 K [mPa·s] | viscosity, 298.15 K [mPa·s] | viscosity, 308.15 K [mPa·s]
x1 = 0.0188 | 901.15 | 890.25 | 879.17 | 0.524 | 0.47 | 0.432
x1 = 0.0393 | 910.03 | 899.18 | 888.14 | 0.542 | 0.479 | 0.439
x1 = 0.0603 | 918.97 | 908.19 | 897.18 | 0.561 | 0.49 | 0.448
x1 = 0.077 | 926 | 915.27 | 904.28 | 0.575 | 0.5 | 0.455
x1 = 0.0988 | 935.05 | 924.38 | 913.41 | 0.594 | 0.513 | 0.466
x1 = 0.2117 | 979.75 | 969.45 | 958.45 | 0.696 | 0.6 | 0.541
x1 = 0.3057 | 1014.39 | 1004.06 | 993.26 | 0.794 | 0.699 | 0.629
x1 = 0.4024 | 1047.72 | 1037.25 | 1026.68 | 0.921 | 0.831 | 0.745
x1 = 0.4992 | 1078.98 | 1068.45 | 1057.96 | 1.088 | 0.998 | 0.89
x1 = 0.5997 | 1109.33 | 1098.74 | 1088.29 | 1.317 | 1.211 | 1.072
x1 = 0.7015 | 1138.16 | 1127.39 | 1117.06 | 1.626 | 1.473 | 1.289
x1 = 0.8033 | 1165.19 | 1154.55 | 1144.02 | 2.03 | 1.786 | 1.54
x1 = 0.9064 | 1190.96 | 1179.68 | 1169.74 | 2.556 | 2.158 | 1.83
x1 = 1 | 1208.67 | 1197.58 | 1187.16 | 3.086 | 2.5 | 2.073

CC1COC(=O)O1 (configuration not stated) [4-methyl-1,3-dioxolan-2-one] + C1COCCO1
Conditions | mass density, 288.15 K [kg/m3] | mass density, 298.15 K [kg/m3] | mass density, 308.15 K [kg/m3] | viscosity, 288.15 K [mPa·s] | viscosity, 298.15 K [mPa·s] | viscosity, 308.15 K [mPa·s]
x1 = 0.0213 | 1042.6 | 1031.46 | 1020.15 | 1.429 | 1.181 | 1.027
x1 = 0.041 | 1045.89 | 1034.79 | 1023.54 | 1.421 | 1.177 | 1.027
x1 = 0.0636 | 1049.76 | 1038.7 | 1027.51 | 1.413 | 1.174 | 1.02
x1 = 0.0823 | 1053.01 | 1041.99 | 1030.85 | 1.408 | 1.173 | 1.026
x1 = 0.0999 | 1056.12 | 1045.13 | 1034.02 | 1.404 | 1.172 | 1.022
x1 = 0.202 | 1074.8 | 1064.02 | 1053.09 | 1.408 | 1.184 | 1.028
x1 = 0.299 | 1093.28 | 1082.69 | 1071.87 | 1.45 | 1.22 | 1.053
x1 = 0.3991 | 1112.62 | 1101.92 | 1091.44 | 1.534 | 1.286 | 1.102
x1 = 0.4991 | 1131.72 | 1121.15 | 1110.7 | 1.659 | 1.381 | 1.171
x1 = 0.5987 | 1150.06 | 1139.4 | 1129.1 | 1.826 | 1.508 | 1.274
x1 = 0.6996 | 1167.4 | 1156.75 | 1146.43 | 2.039 | 1.671 | 1.405
x1 = 0.8049 | 1183.66 | 1172.85 | 1162.59 | 2.307 | 1.878 | 1.571
x1 = 0.9003 | 1196.16 | 1185.45 | 1175.02 | 2.589 | 2.101 | 1.748
x1 = 1 | 1208.67 | 1197.58 | 1187.16 | 3.086 | 2.5 | 2.073

— the NIST ThermoML archive (doi:10.1007/s10765-010-0860-3)
